Laboratory results as given in PubChem BioAssay (NCI).
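Cells were grown in 96-well plates and exposed to each compound for 48 hours at five concentrations; endpoints were interpolated linearly between bracketing concentrations, or set to the highest concentration if not reached. TGI is the concentration that stops growth completely.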

Tests used:
Assay in all cases: inhibition of tumour cell growth, NCI panel, 48 h
SNB-75 CNS = test system: SNB-75 CNS
OVCAR-4 ovarian = test system: OVCAR-4 ovarian
NCI-H460 lung = test system: NCI-H460 lung
MDA-MB-231 breast = test system: MDA-MB-231 breast
NCI-H23 lung = test system: NCI-H23 lung
HT29 colon = test system: HT29 colon
SW-620 colon = test system: SW-620 colon
COLO 205 colon = test system: COLO 205 colon
OVCAR-3 ovarian = test system: OVCAR-3 ovarian
BT-549 breast = test system: BT-549 breast
K-562 leukemia = test system: K-562 leukemia

Measured: TGI

C=C1N(C)c2ccc(S(=O)(=O)c3ccc4c(c3)C(C)(C)C(=C)N4C)cc2C1(C)C
> 100 µM: OVCAR-4 ovarian | NCI-H460 lung | MDA-MB-231 breast | NCI-H23 lung | HT29 colon | SW-620 colon | OVCAR-3 ovarian
87.9 µM: BT-549 breast
62.7 µM: SNB-75 CNS
29.8 µM: COLO 205 colon

O=C1C(Cl)C(c2ccc(O)cc2)N1n1cnc2ccccc2c1=O (stereo not drawn)
> 94 µM: OVCAR-4 ovarian
> 90.1 µM: OVCAR-3 ovarian
47.8 µM: SW-620 colon
> 96.3 µM: NCI-H23 lung
58.4 µM: COLO 205 colon
> 100 µM: K-562 leukemia | SNB-75 CNS | NCI-H460 lung
> 68.8 µM: HT29 colon

Cc1cc(C)c(NS(=O)c2ccc(Cl)cc2)c(C)c1 (stereo not drawn)
> 100 µM: K-562 leukemia | NCI-H460 lung | NCI-H23 lung | HT29 colon | SW-620 colon | COLO 205 colon | OVCAR-3 ovarian | BT-549 breast

CN1CCCS/C1=C1/SC(=S)N(c2ccccc2)C1=O
> 100 µM: K-562 leukemia | SNB-75 CNS | OVCAR-4 ovarian | NCI-H460 lung | NCI-H23 lung | HT29 colon | SW-620 colon | COLO 205 colon | OVCAR-3 ovarian

O=C1CSC(c2ccccc2)N1c1ccc(-c2ccc(-n3c(-c4ccccc4)nc4ccccc4c3=O)cc2)cc1 (stereo not drawn)
> 100 µM: K-562 leukemia | OVCAR-4 ovarian | NCI-H460 lung | MDA-MB-231 breast | NCI-H23 lung | HT29 colon | SW-620 colon | COLO 205 colon | OVCAR-3 ovarian | BT-549 breast

CN1N=C(c2ccncc2)OC1c1cccc(F)c1 (stereo not drawn)
> 100 µM: K-562 leukemia | SNB-75 CNS | OVCAR-4 ovarian | NCI-H460 lung | MDA-MB-231 breast | NCI-H23 lung | HT29 colon | SW-620 colon | COLO 205 colon | OVCAR-3 ovarian

CCCCCCCCCCCCCCCCCCN(C)CC(COC)OP(=O)([O-])OCC[N+](C)(C)C (stereo not drawn)
15.6 µM: SW-620 colon
9.75 µM: OVCAR-4 ovarian
40.2 µM: K-562 leukemia
11.2 µM: OVCAR-3 ovarian
3.68 µM: SNB-75 CNS
4.66 µM: HT29 colon
2.35 µM: NCI-H460 lung
6.75 µM: BT-549 breast
11.7 µM: NCI-H23 lung
2.6 µM: COLO 205 colon

O=C(Nn1c(-c2ccccc2)nc2ccccc2c1=O)c1cccc([N+](=O)[O-])c1
> 100 µM: K-562 leukemia | SNB-75 CNS | OVCAR-4 ovarian | NCI-H460 lung | NCI-H23 lung | HT29 colon | SW-620 colon | COLO 205 colon | OVCAR-3 ovarian | BT-549 breast

O=c1[nH]c(=O)n([C@H]2C[C@@H](CO)[C@@H](O)C2)cc1I
> 100 µM: K-562 leukemia | SNB-75 CNS | OVCAR-4 ovarian | NCI-H460 lung | NCI-H23 lung | HT29 colon | SW-620 colon | COLO 205 colon | OVCAR-3 ovarian

C1=NN2C(c3ccccc3)=NOC2C2C(c3ccccc3)=NOC12 (stereo not drawn)
> 100 µM: SNB-75 CNS | NCI-H460 lung | MDA-MB-231 breast | NCI-H23 lung | COLO 205 colon | OVCAR-3 ovarian | BT-549 breast

COC(=O)C(=O)C(C(=O)OC)C(=O)C(=O)Nc1cc(Cl)c(C)cc1S(=O)(=O)O (stereo not drawn)
> 100 µM: K-562 leukemia | SNB-75 CNS | OVCAR-4 ovarian | NCI-H460 lung | NCI-H23 lung | HT29 colon | SW-620 colon | COLO 205 colon | OVCAR-3 ovarian

N#Cc1c(-c2ccccc2)cn(C(=O)c2ccccc2)c1N
> 100 µM: K-562 leukemia | SNB-75 CNS | OVCAR-4 ovarian | MDA-MB-231 breast | NCI-H23 lung | HT29 colon | SW-620 colon | COLO 205 colon | OVCAR-3 ovarian

Cc1csc2nc(-c3cc([N+](=O)[O-])c(Cl)cc3Cl)c(/C=N/N=C(N)N)n12
45.7 µM: NCI-H460 lung
29.8 µM: OVCAR-4 ovarian
29.5 µM: BT-549 breast
43.6 µM: OVCAR-3 ovarian
28 µM: MDA-MB-231 breast
36.8 µM: COLO 205 colon
20.4 µM: K-562 leukemia
33 µM: NCI-H23 lung
32.5 µM: SW-620 colon
30.5 µM: HT29 colon

COc1nc(=O)[nH]c2c1C(c1ccc([N+](=O)[O-])cc1)c1c(OC)nc(=O)[nH]c1O2
> 100 µM: OVCAR-4 ovarian | NCI-H460 lung | MDA-MB-231 breast | NCI-H23 lung | HT29 colon | SW-620 colon | COLO 205 colon | OVCAR-3 ovarian | BT-549 breast

Cc1c(-c2coc(-c3ccc([N+](=O)[O-])cc3)n2)c(=O)n(-c2ccccc2)n1C
> 100 µM: SNB-75 CNS | OVCAR-4 ovarian | NCI-H460 lung | NCI-H23 lung | HT29 colon | COLO 205 colon | OVCAR-3 ovarian

N#CCCC(C#N)(C#N)CCC#N
> 100 µM: K-562 leukemia | NCI-H460 lung | NCI-H23 lung | HT29 colon | SW-620 colon | COLO 205 colon | OVCAR-3 ovarian

CCOC(=O)c1c2ccccc2n2c(=O)n(-c3ccc(OC)cc3)nnc12
> 91.1 µM: OVCAR-3 ovarian
> 80.7 µM: BT-549 breast
> 64 µM: OVCAR-4 ovarian
> 100 µM: K-562 leukemia | NCI-H460 lung | MDA-MB-231 breast | SW-620 colon | COLO 205 colon
> 81.5 µM: NCI-H23 lung
35.9 µM: SNB-75 CNS
